From PubChem BioAssay AID1996
Converted amounts (≈) assume the structure as drawn.

Settings: buffer; pH 7.4; 200.0 µM

Point of comparison: `O=C(Cc1ccc(Cl)cc1Cl)Nc1ccncc1`, solubility kinetic 31 µg/mL (≈ 110 µM). Against it:
- CC(=O)Nc1ccc(-c2nc3cc(Cl)ccc3o2)cc1 — lower, < 0.3 µg/mL
- CCNC(=O)c1ccc(NS(=O)(=O)c2ccc3[nH]c(=O)[nH]c3c2)cc1 — higher, > 54.1 µg/mL
- O=C(NCCO)C1COc2ccccc2O1 (stereo not given) — higher, > 33.5 µg/mL
- Cc1ccc(C(=O)Nc2ccc(NC(=O)c3ccc(C)o3)cc2)o1 — 18-fold lower, 1.7 µg/mL (≈ 5.24 µM)
- O=C(/C(=C(\O)c1ccccc1)c1ncc[nH]1)c1ccccc1 — 3.3-fold lower, 9.5 µg/mL (≈ 32.7 µM)
- O=S(=O)(c1c(F)cccc1F)N1CCCC2CCCCC21 (stereo not given) — 2.3-fold lower, 13.3 µg/mL (≈ 42.2 µM)
- CCN(C(=O)CSc1nc(C)c(C)c(C)n1)C1CCS(=O)(=O)C1 (stereo not given) — higher, > 53.6 µg/mL
- COc1cc(OC)c(C(=O)NCC2CCCO2)cc1OC (stereo not given) — higher, > 44.3 µg/mL
- CC(C)(C)C(=O)Nc1ccc(-c2cnco2)cc1 — higher, > 36.6 µg/mL
- O=S(=O)(c1ccc(F)cc1)N1CCN(c2ncccn2)CC1 — 3.7-fold lower, 8.3 µg/mL (≈ 25.7 µM)
- Cc1cc(C)cc(NS(=O)(=O)c2c(C)[nH]c(=O)[nH]c2=O)c1 — higher, > 46.4 µg/mL
- Cc1noc(C)c1C(=O)N1CCN(c2ccccc2O)CC1 — within 1.5-fold, 44.9 µg/mL (≈ 149 µM)
- Cc1nn(-c2ccc(F)cc2)c(C)c1/C=C/C(=O)N1CCNC(=O)C1 — higher, > 51.4 µg/mL
- CCc1ccccc1NC(=O)CSc1nc(C)c(C)o1 — higher, > 43.6 µg/mL
- COc1ccc(N2CCOCC2)c(NC(=O)c2cccnc2)c1 — higher, > 47 µg/mL
- C=CCOc1ccc(/C=C2/C(=O)ON=C2C)cc1OCC — within 1.5-fold, 28.3 µg/mL (≈ 98.5 µM)
- CC(=O)Nc1ccc(NC(=O)c2cccc(S(=O)(=O)N3CCCCCC3)c2)cc1 — 5.8-fold lower, 5.3 µg/mL (≈ 12.8 µM)
- COc1ccc(NC(=O)c2c(N)cnn2C)cc1 — higher, > 36.9 µg/mL
- CC(C)NC(=O)COc1nncc2ccccc12 — higher, > 36.8 µg/mL
- O=Cc1c(NCc2ccccc2F)c2ccccc2[nH]c1=O — 7.4-fold lower, 4.2 µg/mL (≈ 14.2 µM)
- Cc1ccc(S(=O)(=O)N2CCC3(CC2)OCCO3)cc1 — higher, > 44.6 µg/mL
- O=C(Nc1ccc2ccccc2c1)c1cc(F)c(F)cc1Cl — lower, < 0.7 µg/mL
- O=Cc1c(F)cccc1N1CCCC1 — 2-fold lower, 15.3 µg/mL (≈ 79.2 µM)
- CC(=O)c1cccc(NC(=O)NCc2ccc3c(c2)OCO3)c1 — 3.4-fold lower, 9.2 µg/mL (≈ 29.5 µM)
- CC1(C)Cc2cccc(OCC(=O)NCc3ccccc3)c2O1 — higher, > 46.7 µg/mL
- COc1ccc2c(c1)CCCC21NC(=O)N(CC(=O)N2CC(C)OC(C)C2)C1=O (stereo not given) — higher, > 60.2 µg/mL
- CC(C)(C)C(=O)Nc1sc2c(c1C(=O)Nc1ccccn1)CCCC2 — lower, < 0.3 µg/mL
- O=C(/C=C/c1ccco1)NCC1OCCc2ccccc21 (stereo not given) — within 1.5-fold, 41.5 µg/mL (≈ 146 µM)
- O=S(=O)(NCCN1CCOCC1)c1cc(Cl)ccc1Cl — within 1.5-fold, 41.6 µg/mL (≈ 123 µM)
- Cl.c1cncc(CNCc2ccco2)c1 — higher, > 33.7 µg/mL
- COC(=O)Cn1cc(C=C2C(=O)N(C)C(=O)N(C)C2=O)c2ccccc21 — 8.2-fold lower, 3.8 µg/mL (≈ 10.7 µM)
- O=C1CN(C(=O)COc2ccc(Cl)cc2Cl)c2ccccc2N1 — 10-fold lower, 3.1 µg/mL (≈ 8.83 µM)
- CCN(CC)/C(=N\S(=O)(=O)c1ccc(F)cc1)c1ccccc1 — higher, > 50.2 µg/mL
- COc1cc(OC)cc(C(=O)Nc2ccc(C(=O)Nc3ccccc3OC)cc2)c1 — 4.8-fold lower, 6.4 µg/mL (≈ 15.7 µM)
- O=C(COC(=O)c1ccccn1)Nc1ccc2c(c1)OCCO2 — within 1.5-fold, 44.4 µg/mL (≈ 141 µM)
- O=C(O)c1ccccc1SCc1csc(-c2ccccc2)n1 — higher, > 49.1 µg/mL
- O=C(O)c1cccc2c1C(=O)N(CC1CCCO1)C2 (stereo not given) — higher, > 39.2 µg/mL
- Cc1cc(NC(=O)COc2ccc3ccccc3c2Br)no1 — 2.2-fold lower, 14.4 µg/mL (≈ 39.9 µM)
- Cc1ccc(/C=C/C(=O)Nc2cc(S(N)(=O)=O)ccc2O)cc1 — within 1.5-fold, 42.2 µg/mL (≈ 127 µM)
- CN1C(=O)N(c2nnc(C(C)(C)C)s2)C(=O)C1c1ccccc1 (stereo not given) — higher, > 49.6 µg/mL
- CCN(C(=O)CSc1ccc2ccccc2n1)C1CCCCC1 — 2.1-fold lower, 14.6 µg/mL (≈ 44.4 µM)
- CC(C)C[C@H](NC(=O)NC1CCCc2ccccc21)C(=O)O (stereo not given in full) — higher, > 45.7 µg/mL
- CCc1c(C(=O)OCc2ccccc2)[nH]c(C)c1C — 24-fold lower, 1.3 µg/mL (≈ 5.05 µM)
- Cc1ccc(OCCCN2C(=O)C(=O)c3cc(C)ccc32)cc1 — lower, < 0.7 µg/mL
- O=C(NCCCCc1ccccc1)c1ccccc1 — 2.2-fold lower, 14.4 µg/mL (≈ 56.8 µM)
- COc1cc(CC(=O)N2CCN(S(=O)(=O)c3ccc(C)cc3)CC2)cc(OC)c1OC — higher, > 67.3 µg/mL
- COCCn1c(C)cc(/C=C2/SC(=O)N(C(C)C(=O)OC)C2=O)c1C (stereo not given) — within 1.5-fold, 36 µg/mL (≈ 98.2 µM)
- Cc1ccc(-c2c(C(=O)O)c(C(=O)O)c3n2CSC3)cc1 — higher, > 45.5 µg/mL
- NC(=O)CCCc1nc(-c2ccccc2)no1 — higher, > 34.7 µg/mL
- COc1ccc(N2CC(NC(=O)N(C)CCC#N)CC2=O)cc1 (stereo not given) — 1.5-fold higher, 46.7 µg/mL (≈ 148 µM)
- COc1ccc(C2/C(=C(/O)c3ccc(F)cc3)C(=O)C(=O)N2CCCN2CCOCC2)cc1OC (stereo not given) — higher, > 72.7 µg/mL
- CN1CCCN(S(=O)(=O)c2ccccc2)CC1.Cl — within 1.5-fold, 39.8 µg/mL
- COCCNC(=O)COC(=O)C1=Cc2ccccc2OC1 — higher, > 43.7 µg/mL
- CCOC(=O)c1cnc(SCC(=O)NNC(=O)c2ccco2)nc1N — higher, > 54.8 µg/mL
- COc1ccc2cc[nH]c2c1 — 2-fold lower, 15.3 µg/mL (≈ 104 µM)
- CC(=O)c1cccc(Nc2cc(C)nc3ccc(C)cc23)c1.Cl — 1.5-fold higher, 46.9 µg/mL
- Cc1ccc(OCC(=O)NCCCNC(=O)c2ccncc2)cc1 — higher, > 49.1 µg/mL
- COc1ccc(S(=O)(=O)NCCCN2CCOCC2)cc1F — higher, > 49.9 µg/mL
- COc1cc(OC)cc(C(=O)OCC(=O)Nc2cccc(S(=O)(=O)NC3=NCCCCC3)c2)c1 — within 1.5-fold, 33.3 µg/mL (≈ 68 µM)
- O=C(O)c1ccc(NC(=O)C2(c3ccccc3)CCCC2)cc1 — higher, > 46.4 µg/mL
- Cc1ccc(NC(=O)CCCN2C(=S)NC(C)(C)CC2C)cc1 (stereo not given) — within 1.5-fold, 45.5 µg/mL (≈ 136 µM)
- CCOc1ccc(NC(=O)Cc2c(C(=O)O)n(C)c3ccccc23)cc1 — higher, > 52.9 µg/mL
- O=c1[nH]c(NCCO)nnc1Cc1ccccc1 — higher, > 36.9 µg/mL
- CC(=O)C1=C(O)CCCC1=NCc1nc2ccccc2[nH]1 — higher, > 42.5 µg/mL
- CC(C)CN(C(=O)C1CC1)C1CCS(=O)(=O)C1 (stereo not given) — higher, > 38.9 µg/mL
- CCOC(=O)CCn1cnc2ccc([N+](=O)[O-])cc2c1=O — within 1.5-fold, 25.2 µg/mL (≈ 86.5 µM)
- Cc1cccc(C)c1OCC(=O)Nc1ccc2c(c1)C(=O)NC2=O — 26-fold lower, 1.2 µg/mL (≈ 3.7 µM)
- Cc1ccc(OCC(=O)NCCc2c[nH]c3ccccc23)cc1 — 6.3-fold lower, 4.9 µg/mL (≈ 15.9 µM)
- COC(=O)c1ccc(CNC(=O)CSc2nc3ccccc3[nH]2)cc1 — 2.7-fold lower, 11.6 µg/mL (≈ 32.6 µM)
- COC(=O)C1=C(C)NC(=O)NC1c1ccc2ccccc2c1 (stereo not given) — lower, < 0.3 µg/mL
- Nc1ncnc(Sc2ncccn2)c1[N+](=O)[O-] — higher, > 37.5 µg/mL
- COc1ccc2oc(-c3ccccc3)c(C(=O)N(C)C)c2c1 — higher, > 44.3 µg/mL
- O=C(O)c1ccc(/C=N/N2CCN(c3ccccc3)CC2)cc1 — higher, > 46.4 µg/mL
- CN(C)C(=S)Nc1ccc(S(=O)(=O)N2CCCCC2)cc1 — 1.5-fold higher, 47.1 µg/mL (≈ 144 µM)
- COc1cccc(C(=O)Nc2cccc3ccccc23)c1OC — 2.1-fold lower, 14.5 µg/mL (≈ 47.2 µM)
- O=S(=O)(NCC1CCCO1)c1ccc(Cl)nc1 (stereo not given) — higher, > 41.5 µg/mL
- CCS(=O)(=O)c1ccccc1C(=O)NC1CCCc2ccccc21 (stereo not given) — within 1.5-fold, 42.6 µg/mL (≈ 124 µM)
- CCN(CC)CC(=O)Nc1sc(C)cc1C(=O)c1ccc(C)cc1 — 78-fold lower, 0.4 µg/mL (≈ 1.16 µM)
- CCCc1c(C)[nH]c2ccc(C(=O)O)cc2c1=S — higher, > 39.2 µg/mL
- COC(=O)c1sccc1NC(=O)c1ccc(C#N)cc1 — 17-fold lower, 1.8 µg/mL (≈ 6.29 µM)
- CCOc1ncccc1C(=O)OCC(=O)NCc1ccc2c(c1)OCO2 — higher, > 53.8 µg/mL
- COc1ccc2oc(=O)c(C(=O)Nc3ccccc3O)cc2c1 — 31-fold lower, 1 µg/mL (≈ 3.21 µM)
- O=[N+]([O-])c1cc([N+](=O)[O-])c2nonc2c1Nc1ccc(O)cc1 — higher, > 47.6 µg/mL
- O=C(NCc1ccc2c(c1)OCO2)c1cccnc1Cl — within 1.5-fold, 37.9 µg/mL (≈ 130 µM)
